Test results: patent US20240108634A1, “COMPOSITIONS AND METHODS FOR INHIBITING YAP” (The United States Government as represented by the …, priority 2021, published 2024)

Key:
LN229 and GBM39 cells = test: Boyden chamber migration towards vitronectin or fibronectin; assay type: cell-based, human; details: vitronectin or fibronectin versus BSA-coated chambers
Excerpt: Cells were layered in soft agar to evaluate anchorage-independent growth in the presence of the indicated concentrations of inhibitor and colonies counted following 14 days of growth. Representative crystal violet stained images are shown below. Data represent mean+S.D. of three independent experiments. […] Cells were placed in Boyden chambers and allowed to migrate towards BSA (white bars), vitronectin (light yellow bars), or fibronectin (dark yellow bars) (*, P<0.05; n=3). […] Representative crystal violet stained images are shown (200×). Data represent mean+S.D. of three independent experiments. […] Graphical data shown below represent mean+S.D. (late apoptosis; annexin V-positive, PI-positive) of three independent experiments.
Cell proliferation, clonogenic, migration, invasion and apoptosis assays. Cell proliferation was determined via Cell Titer-Glo® luminescent cell assays (Promega). Clonogenic assays were done by plating a total of 1,000 cells per well in 24-well plates in a total volume of 400 μL using a two-layered soft agar system as previously described (Masri J, et al. (2007) Cancer Res 67: 11712-11720). Cell migration assays were conducted using precoated modified Boyden chambers as previously described (Benavides-Serrato A, et al. (2017) PLoS One 12: e0176599). […]

YAP [1] = target: T1, YAP (Homo sapiens, UniProt P46937); test: Western blot of YAP and TEAD levels in GBM lines; assay type: cell-based; details: LN229, T98G, GBM39; 18 h, increasing concentrations
T1 construct: endogenous in cells; host or cells: LN229, T98G, GBM39
Experimental: (§1) Levels of total YAP were determined via ELISA. […] Immunoprecipitates were immunoblotted for the indicated proteins. […] Cells were treated with the indicated concentrations of inhibitor for 18 h and mRNA extracted for real time RT-PCR analyses. Measurements were performed in quadruplicate and means and+S.D. are shown. […] Cells were treated with (+) or without (−) NSC682769 (100 nM, 18 h) and harvested and separated into cytoplasmic and nuclear cellular fractions. Cytoplasmic versus nuclear material was subsequently immunoblotted for the indicated proteins. […] Values in top right corner of panels correspond to the percentage of nuclear localized YAP. […]
(§2) Protein and mRNA analyses, immunoprecipitation, in vitro bead-coupled inhibitor binding assays and HPLC analyses. […] Antigen-antibody complexes were detected using appropriate horseradish peroxidase-conjugated secondary antibodies (GE Healthcare) and enhanced chemiluminescence (Amersham ECL Prime). […] For quantitative RT-PCR, extraction of RNA was performed using Trizol® (Life Technologies). Total RNA was then quantified and integrity assessed using an Agilent 2100 Bioanalyzer (Agilent Technology). […] SYBR® Green quantitative PCR (Millipore Sigma) was performed in triplicate in 96-well optical plates on an ABI Prism 7000 Sequence Detection System (Life Technologies) according to the manufacturer's instructions. […]

YAP [2] = test: Western blot of YAP and TEAD levels in GBM lines; assay type: cell-based, human; details: LN229, T98G, GBM39; 18 h, increasing concentrations
Experimental: as §1, §2

## COc1ccc(-c2cc(-c3ccccc3)nc3c2CC(=O)Nc2ccccc2-3)cc1OC [NSC682769]
LN229 and GBM39 cells
  Cell migration: inhibited the number of cells capable of migrating
YAP [1]
  YAP levels: decreased
YAP [2]
  TEAD levels: unaffected
